Source: EPA's CvTdb concentration-time database

What was measured:
Rat [1] = assay: concentration in plasma after dosing; settings: 0.5 h; dosed: Wyeth-14643; 5.0 mg/kg; oral; Male; Sprague-Dawley
Rat [2] = assay: concentration in plasma after dosing; settings: 1 h; dosed: Bis 2-Chloroethoxy Methane; 20 mg/kg; iv; Male; F344
Rat [3] = assay: concentration in thymus after dosing; settings: 40 min; dosed: Bis 2-Chloroethoxy Methane; 20 mg/kg; iv; Male; F344
Rat [4] = assay: concentration in thymus after dosing; settings: 4 h; dosed: Bis 2-Chloroethoxy Methane; 20 mg/kg; iv; Female; F344
Rat [5] = assay: concentration in plasma after dosing; settings: 5 h; dosed: Bis 2-Chloroethoxy Methane; 20 mg/kg; iv; Male; F344
Rat [6] = assay: concentration in kidney after dosing; settings: 1 h; dosed: Fluorotelomer alcohol 8+2; 80 mg/kg; oral; Female; Harlan Sprague Dawley
Rat [7] = assay: concentration in liver after dosing; settings: 0.5 h; dosed: Fluorotelomer alcohol 8+2; 24 mg/kg; oral; Male; Harlan Sprague Dawley
Rat [8] = assay: concentration in plasma after dosing; settings: 0.5 h; dosed: Di-n-butyl phthalate; 100 mg/kg; oral; Male; Sprague-Dawley
Rat [9] = assay: concentration in plasma after dosing; settings: 5 min; dosed: Di-n-butyl phthalate; 100 mg/kg; oral; Male; Sprague-Dawley
Rat [10] = assay: concentration in plasma after dosing; settings: 15 h; dosed: Di-n-butyl phthalate; 100 mg/kg; oral; Male; Sprague-Dawley
Rat [11] = assay: concentration in plasma after dosing; settings: dosed: Perfluorodecanoic acid, 2 mg/kg, iv, Male, F344
Rat [12] = assay: concentration in kidney after dosing; settings: 3360 h; dosed: Perfluorodecanoic acid; 10 mg/kg; oral; Female; Harlan Sprague Dawley
Rat [13] = assay: concentration in plasma after dosing; settings: 12 h; dosed: Primidone; 80 mg/kg; oral; Female; F344
Rat [14] = assay: concentration in plasma after dosing; settings: 6 h; dosed: Primidone; 130 mg/kg; oral; Female; F344
Rat [15] = assay: concentration in plasma after dosing; settings: 1.5 h; dosed: Primidone; 80 mg/kg; oral; Male; F344
Rat [16] = assay: concentration in liver after dosing; settings: 6.667 h; dosed: Thiodiglycolic Acid; 20 mg/kg; iv; Female; Harlan Sprague Dawley
Rat [17] = assay: concentration in thymus after dosing; settings: 2 h; dosed: Thiodiglycolic Acid; 20 mg/kg; iv; Female; Harlan Sprague Dawley
Rat [18] = assay: concentration in plasma after dosing; settings: 3 h; dosed: Thiodiglycolic Acid; 20 mg/kg; iv; Female; Harlan Sprague Dawley
Rat [19] = assay: concentration in thymus after dosing; settings: 6.667 h; dosed: Thiodiglycolic Acid; 20 mg/kg; iv; Female; Harlan Sprague Dawley
Rat [20] = assay: concentration in thymus after dosing; settings: 5.333 h; dosed: Thiodiglycolic Acid; 20 mg/kg; iv; Male; Harlan Sprague Dawley
Rat [21] = assay: concentration in plasma after dosing; settings: dosed: dichloroacetic acid, 40 mg/kg, oral, Female, Harlan Sprague Dawley
Rat [22] = assay: concentration in plasma after dosing; settings: dosed: dichloroacetic acid, 10 mg/kg, oral, Male, Harlan Sprague Dawley
Rat [23] = assay: concentration in plasma after dosing; settings: 5 min; dosed: dichloroacetic acid; 10 mg/kg; iv; Male; F344
Rat [24] = assay: concentration in plasma after dosing; settings: 2 min; dosed: dichloroacetic acid; 10 mg/kg; iv; Male; F344

Question: How did the concentration in plasma (Rat [1]) turn out when `Cc1cccc(Nc2cc(Cl)nc(SCC(=O)O)n2)c1C` was run?
Answer: Its concentration in plasma is 3.83 µg/mL.

Question: How did the concentration in plasma (Rat [2]) turn out when `ClCCOCOCCCl` [Bis 2-Chloroethoxy Methane] was run?
Answer: Its concentration in plasma is 1.32 µg/mL.

Question: What about the concentration in thymus (Rat [3]) of the same compound?
Answer: Its concentration in thymus is 4530 ng/g.

Question: What about the concentration in thymus (Rat [4]) of the same compound?
Answer: Its concentration in thymus is 76.5 ng/g.

Question: And the concentration in plasma (Rat [5])?
Answer: The concentration in plasma was 0.031 µg/mL.

Question: Which results are given for `OCCC(F)(F)C(F)(F)C(F)(F)C(F)(F)C(F)(F)C(F)(F)C(F)(F)C(F)(F)F` [Fluorotelomer alcohol 8+2]?
Answer: concentration in kidney (Rat [6]): 3330 ng/g; concentration in liver (Rat [7]): 7210 ng/g

Question: What does the source list for `CCCCOC(=O)c1ccccc1C(=O)O` [Mono-n-butyl phthalate]?
Answer: concentration in plasma (Rat [8]): 55.9 µg/mL; concentration in plasma (Rat [9]): 3.83 µg/mL; concentration in plasma (Rat [10]): 1.25 µg/mL

Question: For `O=C(O)C(F)(F)C(F)(F)C(F)(F)C(F)(F)C(F)(F)C(F)(F)C(F)(F)C(F)(F)C(F)(F)F` [Perfluorodecanoic acid], which concentration in plasma (Rat [11]; 12 h) is on record?
Answer: The concentration in plasma was 4.32 µg/mL.

Question: What about the concentration in plasma (Rat [11]; 1200 h) of the same compound?
Answer: Its concentration in plasma is 1.72 µg/mL.

Question: What about the concentration in kidney (Rat [12]) of the same compound?
Answer: The concentration in kidney was 2580 ng/g.

Question: With `CCC1(c2ccccc2)C(=O)NC(=O)NC1=O` [Phenobarbital] as the compound, how does the concentration in plasma (Rat [13]) read?
Answer: Its concentration in plasma is 2.26 µg/mL.

Question: What about the concentration in plasma (Rat [14]) of the same compound?
Answer: Its concentration in plasma is 2.33 µg/mL.

Question: And the concentration in plasma (Rat [15])?
Answer: The concentration in plasma was 3.1 µg/mL.

Question: With `O=C(O)CSCC(=O)O` [Thiodiglycolic Acid] as the compound, how does the concentration in liver (Rat [16]) read?
Answer: The concentration in liver was 1600 ng/g.

Question: And the concentration in thymus (Rat [17])?
Answer: Its concentration in thymus is 1910 ng/g.

Question: And the concentration in plasma (Rat [18])?
Answer: The concentration in plasma was 0.535 µg/mL.

Question: And the concentration in thymus (Rat [19])?
Answer: Its concentration in thymus is 329 ng/g.

Question: What about the concentration in thymus (Rat [20]) of the same compound?
Answer: The concentration in thymus was 471 ng/g.

Question: Which concentration in plasma (Rat [21]; 20 min) does the source give for `O=C(O)C(Cl)Cl` [dichloroacetic acid] here?
Answer: The concentration in plasma was 7.44 µg/mL.

Question: What about the concentration in plasma (Rat [21]; 2 h) of the same compound?
Answer: The concentration in plasma was 1.06 µg/mL.

Question: And the concentration in plasma (Rat [22]; 10 min)?
Answer: The concentration in plasma was 0.438 µg/mL.

Question: And the concentration in plasma (Rat [22]; 50 min)?
Answer: Its concentration in plasma is 0.158 µg/mL.

Question: What about the concentration in plasma (Rat [23]) of the same compound?
Answer: Its concentration in plasma is 12.3 µg/mL.

Question: And the concentration in plasma (Rat [24])?
Answer: Its concentration in plasma is 22.9 µg/mL.
